Earlier results in patent publication US11154558B2, “Prevention of atherosclerotic events with direct factor Xa inhibitors” (Adams Pharmaceuticals LLC, priority 2016, dated 2021).
Like-named read-outs stand apart in the source and are kept apart here.

Tests used:
[1] = tested on: atherosclerotic plaques in ApoE^−/−mice
[2] = usual dose about 15 mg to about 20 mg per day
[3] = tested on: platelet aggregation
[4] = biological target: hERG (Homo sapiens, UniProt Q12809)
[5] = human, in vivo
[6] = human, in vivo; remark: listed apart in the source
[7] = ApoE−/− mice treated with rivaroxaban

Chain of hERG (Q12809 whole entry): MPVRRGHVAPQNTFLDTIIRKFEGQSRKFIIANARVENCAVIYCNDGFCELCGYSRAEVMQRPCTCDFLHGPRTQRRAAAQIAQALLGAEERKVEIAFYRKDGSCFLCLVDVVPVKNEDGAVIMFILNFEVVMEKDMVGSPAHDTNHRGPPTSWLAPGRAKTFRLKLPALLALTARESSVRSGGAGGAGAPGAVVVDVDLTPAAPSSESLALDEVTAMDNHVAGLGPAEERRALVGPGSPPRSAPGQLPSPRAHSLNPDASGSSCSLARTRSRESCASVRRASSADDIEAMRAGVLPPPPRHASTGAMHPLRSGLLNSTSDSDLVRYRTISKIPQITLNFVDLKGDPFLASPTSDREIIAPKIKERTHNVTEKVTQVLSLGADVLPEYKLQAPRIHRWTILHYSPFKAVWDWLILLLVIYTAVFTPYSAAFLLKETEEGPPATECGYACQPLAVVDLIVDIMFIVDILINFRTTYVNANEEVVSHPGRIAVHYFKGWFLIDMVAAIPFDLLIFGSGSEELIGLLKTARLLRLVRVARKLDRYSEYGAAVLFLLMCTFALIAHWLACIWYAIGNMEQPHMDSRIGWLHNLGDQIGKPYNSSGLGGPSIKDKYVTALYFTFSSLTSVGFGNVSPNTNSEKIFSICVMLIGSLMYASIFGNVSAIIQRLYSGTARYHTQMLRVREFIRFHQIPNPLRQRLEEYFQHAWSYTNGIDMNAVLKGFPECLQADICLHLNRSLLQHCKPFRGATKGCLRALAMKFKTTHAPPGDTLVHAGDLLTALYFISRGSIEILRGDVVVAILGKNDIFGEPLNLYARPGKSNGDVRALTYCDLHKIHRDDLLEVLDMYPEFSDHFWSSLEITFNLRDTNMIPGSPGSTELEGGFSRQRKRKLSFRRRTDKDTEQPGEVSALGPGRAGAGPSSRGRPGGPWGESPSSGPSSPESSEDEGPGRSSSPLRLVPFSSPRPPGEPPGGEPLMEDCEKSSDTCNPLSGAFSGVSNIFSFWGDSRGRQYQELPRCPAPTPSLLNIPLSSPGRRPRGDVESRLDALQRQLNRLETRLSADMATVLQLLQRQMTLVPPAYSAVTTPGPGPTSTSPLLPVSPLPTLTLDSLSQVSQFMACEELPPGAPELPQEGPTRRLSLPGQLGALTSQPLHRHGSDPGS

Structure (SMILES)	accumulation of macrophages in plaques [1, 7]	atherosclerotic plaque stability and plaque progression [1, 7]	collagen contents in atherosclerotic plaques [1, 7]	expression of matrix metallopeptidase-9 (MMP-9) [1, 7]	lipid deposition in plaques [1, 7]	plasma levels of FXa or thrombin antithrombin ([1]; ApoE−/− mice, administration of rivaroxaban)	risk of a major bleeding event ([2]; one reported study)	risk of a major bleeding event ([2]; second study)	direct effect on platelet aggregation [3]	hERG affinity [4]	prevalence of major bleeding versus placebo [5]	patients affected by bleeding (major bleeding events) [6]
O=C(NC[C@H]1CN(c2ccc(N3CCOCC3=O)cc2)C(=O)O1)c1ccc(Cl)s1 [rivaroxaban]	reduced accumulation	stabilized atherosclerotic plaques and attenuated plaque progression	increased collagen contents	decreased expression	decreased lipid deposition	did not change	4.3%	1.7%	no direct effect on platelet aggregation			
COc1ccc(NC(=O)c2ccc(C(=N)N(C)C)cc2)c(C(=O)Nc2ccc(Cl)cn2)c1 [Betrixaban]										low hERG affinity		
COc1ccc(-n2nc(C(N)=O)c3c2C(=O)N(c2ccc(N4CCCCC4=O)cc2)CC3)cc1 [apixaban]									no direct effect on platelet aggregation		no increased prevalence of major bleeding	1.7%
